The source of these data is the CATMoS acute toxicity set (Mansouri et al. 2021).

The nature of this series: GHS categories as the set defines them, by LD50: 1 up to 5, 2 up to 50, 3 up to 300, 4 up to 2000, 5 above 2000 mg/kg. The note with it: rat; in vivo; po. The text has this:
[…]The data set underlying the modeling effort for this project was initially compiled by NICEATM and U.S. EPA’s CCTE. Briefly, LD50 data were collected from rat acute oral systemic toxicity tests, including limit tests, ranges/confidence intervals, and discrete LD50 values. The full data set included 21,200 LD50 entries for 15,688 substances. […] Data were reviewed to ensure that LD50 values with obvious errors in the extracted data such as unit conversion errors (e.g., comma and decimal separator misplacements) were either fixed or removed. After this review, 16,209 LD50 values remained. Many of the chemicals represented had multiple LD50 entries, requiring that a single representative value per Chemical Abstracts Service Registry Number (CASRN) identifier be defined to facilitate modeling efforts. Based on ATWG feedback and to define the representative LD50 as a protective value while accounting for the distribution across multiple LD50s, the median of the lowest quartile was computed using only discrete LD50 values (omitting limit test data and range and confidence interval data). A detailed summary of the data compilation is available online on the NICEATM webpage dedicated to the collaborative modeling project (NTP 2020).
[…][…] For categorical designations, limit test and range/confidence interval LD50 data were integrated wherever possible. As such, the number of chemicals with end point values/calls varies across the modeling end points (Table 3) based on whether chemicals had representative LD50 values and/or other data. If a chemical had both, the representative value was used to determine categorical calls rather than limit test data. Some data were useable only for certain end points and categories depending on the thresholds. For example, ranges that spanned multiple hazard categories were considered only for the binary (very toxic/nontoxic) end points and omitted from rendering a determination for hazard category assignment.
[…]The final data set comprising 11,992 chemicals was split into training and evaluation sets […], respectively. This process was performed semirandomly by ordering chemicals based on the five end points (categorical and continuous LD50 values) and partitioning every fourth record into the evaluation set accordingly. This approach was taken to ensure an equivalent distribution of the LD50 values and the different hazard categories between the training and the evaluation sets without supervised sampling of the chemicals based on structures (Figure 1A). The sources of the chemical structures were also kept equivalent between the two sets, with chemical structures obtained from DSSTox, being the highest quality, representing over 75% of each set (Figure 1B).

In turn, `CCCNC(=O)c1cnc2cccc(C)n2c1=O` registered a GHS category of 3. `Clc1ccc(Cl)nn1`: the GHS category is listed as 3. Next, `CCNc1nc(Cl)nc(NCC(=O)O)n1`: 5. With `CCOc1cc(C)c2[nH]c(=O)sc2c1` the figure was 5; with `CCCCOC(=O)c1ccc(-n2nc(OCCCN3CCCCC3)c3ccccc32)cc1`, 4; with `O=S(=O)(O)c1ccccc1Nc1ccc(C(=C2C=CC(=Nc3ccccc3)C=C2)c2ccc(Nc3ccccc3)cc2)cc1`, 5. Next, `COc1cc(OC)nc(NC(=O)NS(=O)(=O)Nc2ccccc2C(=O)N(C)C)n1`: 5; `O=S(=O)(O)c1ccc(Nc2nc(Nc3ccc(C=Cc4ccc(Nc5nc(Nc6ccc(S(=O)(=O)O)cc6)nc(N6CCOCC6)n5)cc4S(=O)(=O)O)c(S(=O)(=O)O)c3)nc(N3CCOCC3)n2)cc1`: 5; `O=S(O)CO`: 5. Consider `CCC=CCC(C)OC(=O)c1ccccc1O` (centres undefined), for which the GHS category is 5. The compound `O=C(O)CN1C(=O)c2cccc3cccc(c23)C1=O` registered a GHS category of 5. With `C#CCOc1ccc(CCNC(=O)C(OCC#C)c2ccc(Cl)cc2)cc1OC` (centres undefined) the figure was 5. With `CC(=O)N(C)C(=O)Oc1cccc2c1OC(C)(C)O2` the figure was 4; with `Cc1ccc(S(=O)(=O)NC(=O)NN2CCCCCC2)cc1`, 5.

In the case of `CCN(C(=O)CCCSc1nnnn1C)c1ccccn1`, the GHS category is recorded as 4. Next, `CCCCNC1CC(C)(C)NC(C)(C)C1`: 4; `CCCCCCCCCCCCO[PH](=O)OCCCCCCCCCCCC`: 5; `O=C(CCn1cnc2c(=O)nc[nH]c21)Nc1ccc(C(=O)O)cc1`: 5. Next, `O=S(=O)(c1ccc(Cl)cc1)c1ccc(Cl)cc1`: 5.

For the compound `FC(C(F)C(F)(F)C(F)(F)F)C(F)(F)F` (centres undefined), the GHS category is 5. With `O=C(c1ccc(Cl)c(Cl)c1)c1ccccc1-c1ncc[nH]1` the figure was 4; with `COP(=O)(OC)Oc1ccc(Cl)cc1Cl`, 3; with `O=C(O)c1cc(N=Nc2ccc(N=Nc3ccc(S(=O)(=O)O)cc3)cc2)ccc1O`, 5. Next, `NC(=O)OC[C@@H]1[C@H](NC(=O)/C(=N\OCC(=O)O)c2csc(N)n2)C(=O)N1S(=O)(=O)O`: 5. For the compound `C/C=C(\C)C(=O)OC(C)C`, the GHS category was 5. With `CC(C)C(=O)OOC(C)(C)C` the figure was 5; with `CCC(=O)O[C@]1(C(=O)SCF)[C@H](C)C[C@H]2C3C[C@H](F)C4=CC(=O)C=C[C@]4(C)[C@@]3(F)[C@@H](O)C[C@@]21C` (some centres undefined), 5; with `CCCCC(=O)O[C@]1(C(=O)CO)[C@H](C)C[C@H]2[C@@H]3CCC4=CC(=O)C=C[C@]4(C)[C@@]3(F)[C@@H](O)C[C@@]21C`, 5. For `C[C@@H]1C[C@@H](C)CC(C)(C)C1`, the GHS category amounted to 5. With `Nc1nc(-c2ccc3ccccc3c2)cs1` the figure was 5; with `CCCCCCCCCCCCCCCC(=O)OC(C)C`, 5.

Regarding `CCCCC(CC)C1NC(=O)N(SC(Cl)(Cl)Cl)C1=O` (centres undefined), the GHS category is given as 4. Next, `CCCCOC(=O)C=Cc1ccccc1`: 5. With `COc1ccc2c(c1)CCN(c1ccccc1)C2c1ccc(Br)cc1` (centres undefined) the figure was 4; with `C[SiH](C)O[SiH](C)C`, 5; with `C=C1CC[C@H](O)C/C1=C/C=C1\CCC[C@]2(C)[C@@H]([C@H](C)CC[C@@H](O)C(C)(C)O)CC[C@@H]12`, 2.

`CNc1cccc(NC(=O)C(=O)O)c1C#N`: the GHS category is listed as 5. As to `Cc1ccc(C2CC(=O)C(C(=O)CCc3ccc4c(c3)OCO4)C(=O)C2)cc1` (centres undefined), the GHS category came to 5. Next, `CC(C)(C)C1CCC(OC(=O)Cl)CC1` (centres undefined): 5. Next, `O=C1c2ccccc2C(=O)c2c(Nc3ccccc3)ccc(O)c21`: 5; `O=C(O)CNC(c1ccccc1)c1ccc(Cl)c(Cl)c1` (centres undefined): 4; `CN1CC(c2ccn(C)n2)CC2c3cccc4[nH]cc(c34)CC21` (centres undefined): 4. As for `O=C(O)C1C2C=CC(C2)C1C(=O)O` (centres undefined), the GHS category turned out to be 5. Next, `C/C=C(\C)C(=O)O`: 5; `O=C1CCc2cc(OCCCCc3nnnn3C3CCCCC3)ccc2N1`: 5; `CCCCN(c1nc(NCCCN(CCN(CCCNc2nc(N(CCCC)C3CC(C)(C)N(C)C(C)(C)C3)nc(N(CCCC)C3CC(C)(C)N(C)C(C)(C)C3)n2)c2nc(N(CCCC)C3CC(C)(C)N(C)C(C)(C)C3)nc(N(CCCC)C3CC(C)(C)N(C)C(C)(C)C3)n2)c2nc(N(CCCC)C3CC(C)(C)N(C)C(C)(C)C3)nc(N(CCCC)C3CC(C)(C)N(C)C(C)(C)C3)n2)nc(N(CCCC)C2CC(C)(C)N(C)C(C)(C)C2)n1)C1CC(C)(C)N(C)C(C)(C)C1`: 5.

`CCc1ccc(OCC=C(C)CCC2OC2(C)C)cc1` (centres undefined) came in with a GHS category of 5. Next, `O=C(O)c1ccccc1Nc1ccc(O)c(C(F)(F)F)c1`: 5. Turning to `CC[C@H]1C[C@H]2[C@@H]3CCC4=CC(=O)CC[C@@H]4[C@H]3CC[C@]2(C)[C@H]1OC(C)=O`, the GHS category is reported as 5. With `CCOC(=O)c1cc(Cl)ccc1OC(N)=O` the figure was 5; with `C=C[Si](C)(N(CC)C(C)=O)N(CC)C(C)=O`, 4; with `CC1CC(OC(=O)C(C)(C)Oc2ccccc2Cl)CC(C)(C)C1` (centres undefined), 5.

`CCOC(=O)C1(OC(=O)Cc2ccc(Cl)cc2Cl)CCCCC1` showed a GHS category of 5. For the compound `C1=CCC(c2ccccc2)CC1` (centres undefined), the GHS category worked out at 5.

The compound `CCC[C@H](N[C@@H](C)C(=O)N1[C@H](C(=O)O)C[C@@H]2CCCC[C@@H]21)C(=O)OCC` returned a GHS category of 5.

As to `O=C1CC(=O)NC(=S)N1`, the GHS category was found to be 5. Next, `CC[C@@]12C=C(C(=O)OC3OC(=O)c4ccccc43)n3c4c(c5ccccc53)CCN(CCC1)[C@H]42` (some centres undefined): 5.

Regarding `CC(C)[N+](C)(CCC(C(N)=O)(c1ccccc1)c1ccccc1)C(C)C`, the GHS category came out at 5. Regarding `Nc1ccn([C@@H]2O[C@H](CO)[C@@H](O)[C@@H]2O)c(=O)n1`, the GHS category came out at 5. The compound `Cn1c(CCCC(=O)O)nc2cc(N(CCCl)CCCl)ccc21` came in with a GHS category of 3.

For the compound `COc1ccc(Br)cc1`, the GHS category came out at 4. With `CCC1(c2ccc(O)cc2)NC(=O)NC1=O` (centres undefined) the figure was 5. Next, `CC(C)CCCCCCCCCCCCCCCO`: 5; `O=C1Cc2ccccc2O1`: 5; `CCCCCCCCCCCCCCCCOC(=O)Oc1c(Cl)cc(C(=O)OCC)cc1Cl`: 5.

Turning to `O=C(Nc1ccc(NC(=O)c2cc3ccccc3c(N=Nc3cc(Cl)ccc3Cl)c2O)cc1)c1cc2ccccc2c(N=Nc2cc(Cl)ccc2Cl)c1O`, the GHS category was 5. For the compound `NC(=O)Nc1ccc(Cl)c(Cl)c1`, the GHS category turned out to be 4. Next, `CCCCCCCCC(C)C=O` (centres undefined): 5; `CC(=O)c1ccc(S(=O)(=O)NC(=O)NC2CCCCC2)cc1`: 5; `CCC(=O)C(C)CO` (centres undefined): 5.

Compound `CCN(C(=O)CCCn1nnnc1C)C1CCCCC1` gave a GHS category of 4. As to `CC(C)C1(C)N=C(c2ncccc2C(=O)O)NC1=O` (centres undefined), the GHS category is reported as 5. With `CC(C)(C)C(=O)OCOC(=O)[C@@H]1N2C(=O)[C@@H](NC(=O)[C@H](N)c3ccccc3)[C@H]2SC1(C)C` the figure was 5; with `CC(C)c1cc(C(C)C)cc(C(C)C)c1`, 5. With `CCCCCCC(C)(C)c1cc(O)c2c(c1)OC(C)(C)[C@@H]1CCC(=O)C[C@@H]21` the figure was 4. Next, `OC1(c2ccc(Cl)c(Cl)c2)c2ccccc2C2=NCCCN21` (centres undefined): 4; `CCCCCCCOC(C)=O`: 5; `C=COCCCN`: 4. Turning to `CC1=CC[C@H](CC=O)C1(C)C`, the GHS category was found to be 5.

Consider `CCN(Cc1cccc(S(=O)(=O)O)c1)c1ccc(C(=C2C=CC(=[N+](CC)Cc3cccc(S(=O)(=O)[O-])c3)C=C2)c2ccc(S(=O)(=O)O)cc2)cc1`, for which the GHS category amounted to 5. With `CCCCOC(=O)CC(C)C` the figure was 5; with `COc1cc(C(=O)OCCCN2CCCN(CCCOC(=O)c3cc(OC)c(OC)c(OC)c3)CC2)cc(OC)c1OC`, 5. Next, `Cc1ccc2c(c1)C(=O)C(C)C2` (centres undefined): 5; `Cc1cc(Cc2cc(C)cc(C3CCCCC3)c2O)c(O)c(C2CCCCC2)c1`: 5.
